Measured values as given in patent US8772504B2, “Substituted benzoxazole, benzimidazole, oxazolopyridine and imidazopyridine derivatives as gamma secretase modulators” (Janssen Pharmaceuticals, Inc., priority 2009, dated 2014).

Experiments:
[1] = tested on: Aβtotal; experiment: In vivo efficacy Method 1: brain soluble Aβtotal by ELISA; parameters: species or system mouse; conditions: Table 4a, single oral dose, overnight fasted animals, sacrificed after 4 h, soluble fraction of brain homogenates
Outline: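 Overnight-fasted rodents or APP transgenic mice given a single oral dose in 20% Captisol or 20% hydroxypropyl β-cyclodextrin and sacrificed after 4 h. Right-hemisphere homogenate high-speed supernatant used: neutralized portion for Aβtotal, Oasis HLB-purified and concentrated eluate for Aβ42, both quantified by ELISA.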

[2] = tested on: Notch-processing activity of the γ-secretase-complex; experiment: Notch cell-free assay (NICD production from recombinant Notch substrate N99); assay type: biochemical, mouse; conditions: 1 μM test compound, 0.3-0.5 μM Notch substrate, 37° C. for 6 to 22 h, western blotting
Procedure: The Notch transmembrane domain is cleaved by gamma secretase to release
Notch Intracellular C-terminal Domain (NICD).
To monitor the effect of compounds on NICD production, a recombinant Notch substrate (N99) was prepared. The Notch substrate, comprised of mouse Notch fragment (V1711-E1809), an N-terminal methionine and a C-terminal FLAG sequence ([…]), was expressed in E. coli and purified on a column containing an anti-FLAG M2 affinity matrix.
A typical Notch cell-free assay consisted of 0.3-0.5 μM Notch substrate, an enriched preparation of γ secretase and 1 μM of a test compound (compounds 8, 15, 92, 108, 114 and 130 of the present invention). Controls included a γ secretase inhibitor (GSI), such as (2S)—N-[2-(3,5-difluorophenyeacetyl]-L-alanyl-2-phenyl-glycine 1,1-dimethylethyl ester (DAPT) or (2S)-2-hydroxy-3-methyl-N-[(1S)-1-methyl-2-oxo-2-[[(1S)-2,3,4,5-tetrahydro-3-methyl-2-oxo-1H-3-benzazepin-1-yl]amino]ethyl]-butanamide (Semagacestat), and DMSO, the final concentration of DMSO being 1%. Recombinant Notch substrate was pre-treated with 17 μM DTT (1,4-dithiothreitol) and 0.02% SDS (Sodium Dodecyl Sulfate) and heated at 65° C. for 10 min. The mixture of substrate, gamma secretase and compound/DMSO was incubated at 37° C. for 6 to 22 hours (h). 6 h incubation was sufficient to produce the maximal amount of NICD and the cleaved product remained stable for an additional 16 h. Reaction products were processed for SDS PAGE (Sodium Dodecyl Sulfate-Poly Acrylamide Gel Electrophoresis) and western blotting. Blots were probed with an anti-Flag M2 antibody, followed by LI-COR infrared secondary antibody, and analyzed with the Odyssey Infrared Imaging System (LI-COR® Biosciences).

Structure (SMILES): COc1cc(Nc2cccc3c2nc(-c2ccc(F)cc2)n3C)ccc1-n1cnc(C)c1 [Compound 1]
- Aβtotal (% Ctrl) _Mean [1]: 100 % Ctrl

Structure (SMILES): COc1cc(Nc2cccc3c2nc(-c2ccc(F)cc2)n3C)ccc1-n1cnc(C)n1 [Compound 4]
- Aβtotal (% Ctrl) _Mean [1]: 92 % Ctrl

Structure (SMILES): COc1cc(Nc2nccc3c2nc(-c2ccc(F)cc2)n3C)ccc1-n1cnc(C)c1 [Compound 8]
- effect on the Notch-processing activity of the γ-secretase-complex (production of NICD) [2]: did not show an effect
- Aβtotal (% Ctrl) _Mean [1]: 91 % Ctrl

Structure (SMILES): COc1nc(Nc2cccc3c2nc(-c2ccc(F)cc2)n3C)ccc1-n1cnc(C)c1 [Compound 15]
- effect on the Notch-processing activity of the γ-secretase-complex (production of NICD) [2]: did not show an effect
- Aβtotal (% Ctrl) _Mean [1]: 83 % Ctrl

Structure (SMILES): CCn1c(CC2CC2)nc2c(Nc3ccc(-n4cnc(C)c4)c(OC)c3)cccc21 [Compound 36]
- Aβtotal (% Ctrl) _Mean [1]: 95 % Ctrl

Structure (SMILES): COc1cc(Nc2cccc3c2nc(Oc2ccccc2)n3C)ccc1-n1cnc(C)c1 [Compound 61]
- Aβtotal (% Ctrl) _Mean [1]: 97 % Ctrl

Structure (SMILES): Cc1cn(-c2ccc(Nc3cccc4c3nc(-c3ccc(F)cc3)n4C)cc2F)cn1 [Compound 67]
- Aβtotal (% Ctrl) _Mean [1]: 99 % Ctrl

Structure (SMILES): Cc1ncn(-c2ccc(Nc3cccc4c3nc(-c3ccc(F)cc3)n4C(C)C)cc2)n1.Cl.Cl [Compound 73]
- Aβtotal (% Ctrl) _Mean [1]: 97 % Ctrl

Structure (SMILES): COc1cc(Nc2cccc3c2nc(-c2ccc(F)cc2)n3C(C)C)ccc1-n1cnc(C)n1.Cl.Cl [Compound 75]
- Aβtotal (% Ctrl) _Mean [1]: 92 % Ctrl

Structure (SMILES): Cc1ncn(-c2ccc(Nc3cccc4c3nc(-c3ccc(F)cc3)n4C(C)C)cn2)n1 [Compound 76]
- Aβtotal (% Ctrl) _Mean [1]: 102 % Ctrl

Structure (SMILES): COc1cc(Nc2nccc3c2nc(-c2ccc(F)cc2)n3C)ccc1-n1cnc(C)n1 [Compound 92]
- effect on the Notch-processing activity of the γ-secretase-complex (production of NICD) [2]: did not show an effect
- Aβtotal (% Ctrl) _Mean [1]: 103 % Ctrl

Structure (SMILES): COc1cc(-c2nc3c(Nc4ccc(-n5cnc(C)n5)c(OC)c4)nccc3n2C)ccc1Cl [Compound 114]
- effect on the Notch-processing activity of the γ-secretase-complex (production of NICD) [2]: did not show an effect

Structure (SMILES): COc1nc(Nc2cc(F)cc3c2nc(-c2ccc(F)cc2)n3C)ccc1-n1cnc(C)c1 [Compound 115]
- Aβtotal (% Ctrl) _Mean [1]: 93 % Ctrl

Structure (SMILES): COc1cc(Nc2nccc3c2nc(-c2ccccc2C(F)(F)F)n3C)ccc1-n1cnc(C)n1 [Compound 130]
- effect on the Notch-processing activity of the γ-secretase-complex (production of NICD) [2]: did not show an effect
- Aβtotal (% Ctrl) _Mean [1]: 94 % Ctrl

Structure (SMILES): COc1cc(Nc2nc(C)cc3c2nc(-c2ccc(F)cc2)n3C)ccc1-n1cnc(C)n1 [Compound 164]
- Aβtotal (% Ctrl) _Mean [1]: 97 % Ctrl
